Experimental data as given in patent publication US20170081347A1, “FUNCTIONALIZED AZABORINE COMPOUNDS AND AZABORINE-CONTAINING BIARYLCARBOXAMIDES, AND COMPOSITIONS AND METHODS THEREOF” (The Trustees of Boston College, priority 2014, published 2017).
Values after ≈ are worked out from the molar mass of the structure shown.

target: CYP3A4 (Homo sapiens, UniProt P08684); assay: CYP3A4 (Cytochrome P450 3A4); type: in vitro ADME; conditions: not given
Sequence (P08684 whole entry): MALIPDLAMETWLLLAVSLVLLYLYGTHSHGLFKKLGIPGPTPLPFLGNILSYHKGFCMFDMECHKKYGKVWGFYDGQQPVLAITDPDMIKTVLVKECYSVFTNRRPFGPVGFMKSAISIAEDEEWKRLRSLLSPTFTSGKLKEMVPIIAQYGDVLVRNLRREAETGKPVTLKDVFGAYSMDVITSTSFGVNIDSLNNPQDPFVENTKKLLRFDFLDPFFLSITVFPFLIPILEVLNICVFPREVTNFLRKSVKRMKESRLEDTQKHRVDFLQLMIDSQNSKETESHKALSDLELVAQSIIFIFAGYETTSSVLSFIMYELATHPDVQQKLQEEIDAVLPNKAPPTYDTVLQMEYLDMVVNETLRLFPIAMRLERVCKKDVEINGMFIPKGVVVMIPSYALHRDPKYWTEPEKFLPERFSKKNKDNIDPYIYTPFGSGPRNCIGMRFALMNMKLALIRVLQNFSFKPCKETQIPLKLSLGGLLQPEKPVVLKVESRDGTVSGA

**Q.** With `Cl.O=C(Cc1ccc(-c2ccccc2)cc1)Nc1cc(C2CC2)n[nH]1` as the molecule, how does the IC50 read?
**A.** The IC50 was > 20 µM.

**Q.** With `COc1ccc2[nH]cc(CCNC(=O)c3ccc(B4C=CC=CN4)cc3)c2c1` as the molecule, how does the IC50 read?
**A.** Its IC50 is 17 µM.

**Q.** For `CC(C)[C@@H](CN1CCN(c2cccc(O)c2)[C@@H](C)C1)NC(=O)c1ccc(B2C=CCCN2)cc1`, which IC50 is on record?
**A.** The IC50 was 16 µM.

**Q.** For `O=C(Cc1ccc(B2C=CC=CN2)cc1)Nc1cc(C2CC2)[nH]n1`, which IC50 is on record?
**A.** The IC50 was 7.8 µM.

**Q.** Which IC50 does the source give for `CN(CCc1c[nH]c2ccccc12)C(=O)c1ccc(-c2ccccc2)cc1` here?
**A.** Its IC50 is > 20 µM.

**Q.** Which IC50 does the source give for `CC(C)[C@@H](CN1CCN(c2cccc(O)c2)[C@@H](C)C1)NC(=O)c1ccc(-c2ccccc2)cc1` here?
**A.** The IC50 was > 20 µM.

**Q.** For `O=C(NCc1ccncc1)c1ccc(B2C=CC=CN2)cc1`, which IC50 is on record?
**A.** Its IC50 is 8.6 µM.

**Q.** For `COc1ccccc1N1CCN(CCCCNC(=O)c2ccc(B3C=CC=CN3)cc2)CC1`, which IC50 is on record?
**A.** The IC50 was 11 µM.

target: Dopamine D2 (Homo sapiens, UniProt P14416); assay: Dopamine D2 antagonist; type: biochemical; conditions: not given
Sequence (P14416 whole entry): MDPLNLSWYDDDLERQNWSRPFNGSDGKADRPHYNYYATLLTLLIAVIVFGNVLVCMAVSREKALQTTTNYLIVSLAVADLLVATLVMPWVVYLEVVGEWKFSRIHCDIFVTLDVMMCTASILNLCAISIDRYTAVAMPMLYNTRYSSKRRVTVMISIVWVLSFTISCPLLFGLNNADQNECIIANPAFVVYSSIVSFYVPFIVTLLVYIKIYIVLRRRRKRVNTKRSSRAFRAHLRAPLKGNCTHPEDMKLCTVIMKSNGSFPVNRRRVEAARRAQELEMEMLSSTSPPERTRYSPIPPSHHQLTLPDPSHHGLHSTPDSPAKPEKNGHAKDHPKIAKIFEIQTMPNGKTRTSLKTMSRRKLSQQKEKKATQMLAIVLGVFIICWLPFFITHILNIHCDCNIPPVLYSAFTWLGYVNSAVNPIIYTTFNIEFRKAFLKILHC

**Q.** For `COc1ccccc1N1CCN(CCCCNC(=O)c2ccc(B3C=CC=CN3)cc2)CC1`, which IC50 is on record?
**A.** Its IC50 is 0.52 µM.

target: Opioid δ (Homo sapiens, UniProt P41143); assay: Opioid δ antagonist; type: biochemical; conditions: not given
Description: (§1) Bioactivity and ADME testing were performed for certain compounds of the invention.

Chain of Opioid δ (P41143 whole entry): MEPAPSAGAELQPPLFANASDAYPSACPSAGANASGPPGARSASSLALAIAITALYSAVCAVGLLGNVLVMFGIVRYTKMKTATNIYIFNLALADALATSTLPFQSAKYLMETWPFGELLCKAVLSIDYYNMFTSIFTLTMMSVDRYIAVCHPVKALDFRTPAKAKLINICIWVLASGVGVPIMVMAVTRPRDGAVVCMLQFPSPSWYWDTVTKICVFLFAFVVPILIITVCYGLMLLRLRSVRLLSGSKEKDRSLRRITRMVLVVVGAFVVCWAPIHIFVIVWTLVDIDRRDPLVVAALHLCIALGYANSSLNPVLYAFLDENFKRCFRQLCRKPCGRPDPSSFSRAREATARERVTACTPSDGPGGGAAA

**Q.** Which IC50 does the source give for `CC(C)[C@@H](CN1CCN(c2cccc(O)c2)[C@@H](C)C1)NC(=O)c1ccc(B2C=CCCN2)cc1` here?
**A.** Its IC50 is > 14 µM.

**Q.** For `CC(C)[C@@H](CN1CCN(c2cccc(O)c2)[C@@H](C)C1)NC(=O)c1ccc(-c2ccccc2)cc1`, which IC50 is on record?
**A.** The IC50 was > 30 µM.

tested on: not listed separately; assay: LogD; type: physicochemical; conditions: not given

**Q.** For `Cl.O=C(Cc1ccc(-c2ccccc2)cc1)Nc1cc(C2CC2)n[nH]1`, which logD is on record?
**A.** Its logD is 4.2.

**Q.** For `COc1ccc2[nH]cc(CCNC(=O)c3ccc(B4C=CC=CN4)cc3)c2c1`, which logD is on record?
**A.** The logD was 5.

**Q.** Which logD does the source give for `CC(C)[C@@H](CN1CCN(c2cccc(O)c2)[C@@H](C)C1)NC(=O)c1ccc(B2C=CCCN2)cc1` here?
**A.** Its logD is 4.9.

**Q.** For `CN(CCc1c[nH]c2ccccc12)C(=O)c1ccc(-c2ccccc2)cc1`, which logD is on record?
**A.** The logD was > 5.

**Q.** For `CC(C)[C@@H](CN1CCN(c2cccc(O)c2)[C@@H](C)C1)NC(=O)c1ccc(-c2ccccc2)cc1`, which logD is on record?
**A.** The logD was 5.2.

**Q.** Which logD does the source give for `O=C(NCc1ccncc1)c1ccc(B2C=CC=CN2)cc1` here?
**A.** The logD was 3.2.

**Q.** For `COc1ccccc1N1CCN(CCCCNC(=O)c2ccc(B3C=CC=CN3)cc2)CC1`, which logD is on record?
**A.** The logD was 4.1.

target: Dopamine D3 (Homo sapiens, UniProt P35462); assay: Dopamine D3 antagonist; type: biochemical; conditions: not given
Description: as §1

Chain of Dopamine D3 (P35462 whole entry): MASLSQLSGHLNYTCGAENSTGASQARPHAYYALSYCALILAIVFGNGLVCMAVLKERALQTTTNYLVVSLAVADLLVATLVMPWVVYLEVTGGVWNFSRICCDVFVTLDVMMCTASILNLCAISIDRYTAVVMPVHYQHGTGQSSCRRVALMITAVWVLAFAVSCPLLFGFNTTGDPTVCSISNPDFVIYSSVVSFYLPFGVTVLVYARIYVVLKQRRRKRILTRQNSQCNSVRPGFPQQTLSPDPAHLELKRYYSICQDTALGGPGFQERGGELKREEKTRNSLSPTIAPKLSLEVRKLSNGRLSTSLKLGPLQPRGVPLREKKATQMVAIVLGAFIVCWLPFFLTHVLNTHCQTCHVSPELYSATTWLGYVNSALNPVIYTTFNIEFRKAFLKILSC

**Q.** Which IC50 does the source give for `COc1ccccc1N1CCN(CCCCNC(=O)c2ccc(B3C=CC=CN3)cc2)CC1` here?
**A.** Its IC50 is 0.004 µM.

tested on: not listed separately; assay: Solubility FASSIF (fasted state simulated intestinal fluid); type: physicochemical; conditions: not given

**Q.** Which solubility does the source give for `Cl.O=C(Cc1ccc(-c2ccccc2)cc1)Nc1cc(C2CC2)n[nH]1` here?
**A.** Its solubility is 13 µM.

**Q.** Which solubility does the source give for `CC(C)[C@@H](CN1CCN(c2cccc(O)c2)[C@@H](C)C1)NC(=O)c1ccc(B2C=CCCN2)cc1` here?
**A.** Its solubility is 119 µM (≈ 54.8 µg/mL).

**Q.** Which solubility does the source give for `O=C(O)Cc1ccc(-c2ccccc2)cc1` here?
**A.** Its solubility is 840 µM (≈ 178 µg/mL).

**Q.** For `CN(CCc1c[nH]c2ccccc12)C(=O)c1ccc(-c2ccccc2)cc1`, which solubility is on record?
**A.** Its solubility is < 5 µM.

**Q.** With `CC(C)[C@@H](CN1CCN(c2cccc(O)c2)[C@@H](C)C1)NC(=O)c1ccc(-c2ccccc2)cc1` as the molecule, how does the solubility read?
**A.** Its solubility is 349 µM (≈ 160 µg/mL).

**Q.** For `O=C(NCc1ccncc1)c1ccc(B2C=CC=CN2)cc1`, which solubility is on record?
**A.** Its solubility is 130 µM (≈ 37.6 µg/mL).

**Q.** Which solubility does the source give for `COc1ccccc1N1CCN(CCCCNC(=O)c2ccc(B3C=CC=CN3)cc2)CC1` here?
**A.** The solubility was 220 µM (≈ 97.8 µg/mL).

target: hERG (Homo sapiens, UniProt Q12809); assay: hERG; conditions: not given
Sequence (Q12809 whole entry): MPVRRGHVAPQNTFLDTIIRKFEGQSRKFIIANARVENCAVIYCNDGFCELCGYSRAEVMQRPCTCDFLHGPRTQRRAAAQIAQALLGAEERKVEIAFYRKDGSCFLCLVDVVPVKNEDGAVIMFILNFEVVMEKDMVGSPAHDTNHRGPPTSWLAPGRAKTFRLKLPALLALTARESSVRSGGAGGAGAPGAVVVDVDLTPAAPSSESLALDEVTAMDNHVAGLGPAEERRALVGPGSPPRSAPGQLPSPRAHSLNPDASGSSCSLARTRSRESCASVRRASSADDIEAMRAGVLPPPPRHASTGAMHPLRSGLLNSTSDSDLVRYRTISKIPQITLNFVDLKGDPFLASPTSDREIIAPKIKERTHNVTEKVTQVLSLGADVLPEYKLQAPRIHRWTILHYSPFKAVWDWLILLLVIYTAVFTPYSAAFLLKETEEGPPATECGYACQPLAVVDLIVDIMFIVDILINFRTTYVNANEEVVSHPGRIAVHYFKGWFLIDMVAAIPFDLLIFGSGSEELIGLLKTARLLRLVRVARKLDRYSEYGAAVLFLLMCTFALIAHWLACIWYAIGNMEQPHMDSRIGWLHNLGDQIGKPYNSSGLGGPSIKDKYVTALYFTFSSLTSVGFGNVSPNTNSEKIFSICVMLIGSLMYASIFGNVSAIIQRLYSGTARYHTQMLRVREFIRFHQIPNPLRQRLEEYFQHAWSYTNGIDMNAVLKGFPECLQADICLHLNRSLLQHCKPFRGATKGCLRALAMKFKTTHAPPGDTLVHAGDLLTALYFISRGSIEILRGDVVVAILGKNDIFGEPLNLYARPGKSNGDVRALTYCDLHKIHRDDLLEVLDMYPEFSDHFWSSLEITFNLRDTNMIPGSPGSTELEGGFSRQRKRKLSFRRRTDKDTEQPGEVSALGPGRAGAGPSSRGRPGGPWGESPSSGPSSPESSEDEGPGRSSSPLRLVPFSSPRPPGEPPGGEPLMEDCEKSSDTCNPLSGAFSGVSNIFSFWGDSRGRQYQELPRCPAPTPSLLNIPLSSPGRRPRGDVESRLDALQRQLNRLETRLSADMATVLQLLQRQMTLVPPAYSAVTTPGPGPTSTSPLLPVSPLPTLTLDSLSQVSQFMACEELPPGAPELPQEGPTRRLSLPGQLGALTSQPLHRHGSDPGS

**Q.** For `Cl.O=C(Cc1ccc(-c2ccccc2)cc1)Nc1cc(C2CC2)n[nH]1`, which IC50 is on record?
**A.** The IC50 was > 30 µM.

**Q.** For `COc1ccc2[nH]cc(CCNC(=O)c3ccc(B4C=CC=CN4)cc3)c2c1`, which IC50 is on record?
**A.** The IC50 was 7.9 µM.

**Q.** For `CC(C)[C@@H](CN1CCN(c2cccc(O)c2)[C@@H](C)C1)NC(=O)c1ccc(B2C=CCCN2)cc1`, which IC50 is on record?
**A.** The IC50 was 9.1 µM.

**Q.** With `O=C(Cc1ccc(B2C=CC=CN2)cc1)Nc1cc(C2CC2)[nH]n1` as the molecule, how does the IC50 read?
**A.** Its IC50 is > 30 µM.

**Q.** Which IC50 does the source give for `CN(CCc1c[nH]c2ccccc12)C(=O)c1ccc(-c2ccccc2)cc1` here?
**A.** The IC50 was > 30 µM.

**Q.** For `CC(C)[C@@H](CN1CCN(c2cccc(O)c2)[C@@H](C)C1)NC(=O)c1ccc(-c2ccccc2)cc1`, which IC50 is on record?
**A.** Its IC50 is > 30 µM.

**Q.** For `O=C(NCc1ccncc1)c1ccc(B2C=CC=CN2)cc1`, which IC50 is on record?
**A.** Its IC50 is > 30 µM.

**Q.** For `COc1ccccc1N1CCN(CCCCNC(=O)c2ccc(B3C=CC=CN3)cc2)CC1`, which IC50 is on record?
**A.** Its IC50 is 0.17 µM.

tested on: not listed separately; assay: PAMPA (parellel artificial membrane permeability assay); type: in vitro ADME; design: unit not given here; conditions: not given

**Q.** Which PAMPA does the source give for `Cl.O=C(Cc1ccc(-c2ccccc2)cc1)Nc1cc(C2CC2)n[nH]1` here?
**A.** Its PAMPA is −3.9.

**Q.** With `COc1ccc2[nH]cc(CCNC(=O)c3ccc(B4C=CC=CN4)cc3)c2c1` as the molecule, how does the PAMPA read?
**A.** Its PAMPA is −4.2.

**Q.** Which PAMPA does the source give for `CC(C)[C@@H](CN1CCN(c2cccc(O)c2)[C@@H](C)C1)NC(=O)c1ccc(B2C=CCCN2)cc1` here?
**A.** Its PAMPA is −5.0.

**Q.** For `CN(CCc1c[nH]c2ccccc12)C(=O)c1ccc(-c2ccccc2)cc1`, which PAMPA is on record?
**A.** Its PAMPA is −4.5.

**Q.** For `CC(C)[C@@H](CN1CCN(c2cccc(O)c2)[C@@H](C)C1)NC(=O)c1ccc(-c2ccccc2)cc1`, which PAMPA is on record?
**A.** The PAMPA was −5.7.

**Q.** With `O=C(NCc1ccncc1)c1ccc(B2C=CC=CN2)cc1` as the molecule, how does the PAMPA read?
**A.** The PAMPA was −4.6.

**Q.** With `COc1ccccc1N1CCN(CCCCNC(=O)c2ccc(B3C=CC=CN3)cc2)CC1` as the molecule, how does the PAMPA read?
**A.** Its PAMPA is −4.3.

tested on: not listed separately; assay: RLM Cl; type: in vitro ADME; conditions: not given

**Q.** For `Cl.O=C(Cc1ccc(-c2ccccc2)cc1)Nc1cc(C2CC2)n[nH]1`, which “RLM Cl” value is on record?
**A.** Its value is 50 mL/min/kg.

**Q.** Which “RLM Cl” value does the source give for `COc1ccc2[nH]cc(CCNC(=O)c3ccc(B4C=CC=CN4)cc3)c2c1` here?
**A.** Its value is 51.3 mL/min/kg.

**Q.** For `CC(C)[C@@H](CN1CCN(c2cccc(O)c2)[C@@H](C)C1)NC(=O)c1ccc(B2C=CCCN2)cc1`, which “RLM Cl” value is on record?
**A.** The value was >53 mL/min/kg.

**Q.** For `CN(CCc1c[nH]c2ccccc12)C(=O)c1ccc(-c2ccccc2)cc1`, which “RLM Cl” value is on record?
**A.** The value was 48.6 mL/min/kg.

**Q.** With `CC(C)[C@@H](CN1CCN(c2cccc(O)c2)[C@@H](C)C1)NC(=O)c1ccc(-c2ccccc2)cc1` as the molecule, how does the “RLM Cl” value read?
**A.** Its value is >53 mL/min/kg.

**Q.** With `O=C(NCc1ccncc1)c1ccc(B2C=CC=CN2)cc1` as the molecule, how does the “RLM Cl” value read?
**A.** The value was 39.6 mL/min/kg.

**Q.** Which “RLM Cl” value does the source give for `COc1ccccc1N1CCN(CCCCNC(=O)c2ccc(B3C=CC=CN3)cc2)CC1` here?
**A.** The value was >53 mL/min/kg.

tested on: not listed separately; assay: Solubility pH = 6.8; type: physicochemical; conditions: aqueous buffer

**Q.** For `Cl.O=C(Cc1ccc(-c2ccccc2)cc1)Nc1cc(C2CC2)n[nH]1`, which solubility is on record?
**A.** The solubility was < 4 µM.

**Q.** Which solubility does the source give for `CC(C)[C@@H](CN1CCN(c2cccc(O)c2)[C@@H](C)C1)NC(=O)c1ccc(B2C=CCCN2)cc1` here?
**A.** Its solubility is 26 µM (≈ 12 µg/mL).

**Q.** Which solubility does the source give for `O=C(O)Cc1ccc(-c2ccccc2)cc1` here?
**A.** The solubility was 890 µM (≈ 189 µg/mL).

**Q.** Which solubility does the source give for `CN(CCc1c[nH]c2ccccc12)C(=O)c1ccc(-c2ccccc2)cc1` here?
**A.** The solubility was < 5 µM.

**Q.** Which solubility does the source give for `CC(C)[C@@H](CN1CCN(c2cccc(O)c2)[C@@H](C)C1)NC(=O)c1ccc(-c2ccccc2)cc1` here?
**A.** The solubility was 50 µM (≈ 22.9 µg/mL).

**Q.** With `O=C(NCc1ccncc1)c1ccc(B2C=CC=CN2)cc1` as the molecule, how does the solubility read?
**A.** Its solubility is 88 µM (≈ 25.4 µg/mL).

**Q.** With `COc1ccccc1N1CCN(CCCCNC(=O)c2ccc(B3C=CC=CN3)cc2)CC1` as the molecule, how does the solubility read?
**A.** Its solubility is 46 µM (≈ 20.4 µg/mL).

target: CDK2 (Homo sapiens, UniProt P24941); assay: CDK2 inhibitor; type: biochemical; conditions: not given

**Q.** For `O=C(Cc1ccc(B2C=CC=CN2)cc1)Nc1cc(C2CC2)[nH]n1`, which IC50 is on record?
**A.** The IC50 was 0.24 µM.

target: Opioid μ (Homo sapiens, UniProt P35372); assay: Opioid μ antagonist; type: biochemical; conditions: not given
Description: as §1

Chain of Opioid μ (P35372 whole entry): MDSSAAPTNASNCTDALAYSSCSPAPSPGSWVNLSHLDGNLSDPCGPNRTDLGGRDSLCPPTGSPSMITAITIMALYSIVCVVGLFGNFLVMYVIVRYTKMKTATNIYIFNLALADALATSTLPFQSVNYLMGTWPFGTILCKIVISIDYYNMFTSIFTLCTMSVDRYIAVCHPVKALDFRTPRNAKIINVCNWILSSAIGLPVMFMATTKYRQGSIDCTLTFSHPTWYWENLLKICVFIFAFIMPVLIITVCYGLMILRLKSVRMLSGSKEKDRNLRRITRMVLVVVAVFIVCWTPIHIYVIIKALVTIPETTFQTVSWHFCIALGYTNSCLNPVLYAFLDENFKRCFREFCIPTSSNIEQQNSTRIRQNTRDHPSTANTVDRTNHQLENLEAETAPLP

**Q.** With `CC(C)[C@@H](CN1CCN(c2cccc(O)c2)[C@@H](C)C1)NC(=O)c1ccc(B2C=CCCN2)cc1` as the molecule, how does the IC50 read?
**A.** Its IC50 is 1 µM.

**Q.** With `CC(C)[C@@H](CN1CCN(c2cccc(O)c2)[C@@H](C)C1)NC(=O)c1ccc(-c2ccccc2)cc1` as the molecule, how does the IC50 read?
**A.** Its IC50 is 7.4 µM.
